Test results: PubChem BioAssay (NCI)
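Interpolation was linear, between the two tested concentrations surrounding the appropriate level; five concentrations were tested over 48 hours in 96-well plates. TGI denotes the concentration required for complete inhibition of growth.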

Columns and labels:
Assay in all cases: growth of human tumour cells (NCI), 48 h
[1] = tested on: HCC-2998 colon
[2] = tested on: MCF7 breast
[3] = tested on: MDA-MB-435
[4] = tested on: UO-31 renal
[5] = tested on: ACHN renal
[6] = tested on: SNB-19 CNS
[7] = tested on: RPMI-8226 leukemia
[8] = tested on: UACC-257 melanoma
[9] = tested on: PC-3 prostate
[10] = tested on: HOP-92 NSCLC
[11] = tested on: CCRF-CEM leukemia
[12] = tested on: HCT-116 colon
[13] = tested on: TK-10 renal
[14] = tested on: SNB-75 CNS
[15] = tested on: SK-MEL-2 melanoma
[16] = tested on: NCI-H226 lung
[17] = tested on: NCI-H460 lung
[18] = tested on: NCI/ADR-RES ovarian
[19] = tested on: RXF 393 renal
[20] = tested on: K-562 leukemia
[21] = tested on: M14 melanoma
[22] = tested on: HS 578T breast
[23] = tested on: NCI-H23 lung
[24] = tested on: SW-620 colon
[25] = tested on: HOP-62 NSCLC
[26] = tested on: HCT-15 colon
[27] = tested on: NCI-H522 lung
[28] = tested on: SK-MEL-28 melanoma
[29] = tested on: SK-OV-3 ovarian
[30] = tested on: OVCAR-8 ovarian
[31] = tested on: SK-MEL-5 melanoma
[32] = tested on: MDA-N
[33] = tested on: EKVX NSCLC
[34] = tested on: CAKI-1 renal
[35] = tested on: SR leukemia
[36] = tested on: U251 CNS
[37] = tested on: KM12 colon
[38] = tested on: SF-268 CNS
[39] = tested on: IGROV1 ovarian
[40] = tested on: DU-145 prostate
[41] = tested on: SN12C renal
[42] = tested on: SF-539 CNS
[43] = tested on: MOLT-4 leukemia
[44] = tested on: OVCAR-5 ovarian
[45] = tested on: BT-549 breast
[46] = tested on: OVCAR-4 ovarian
[47] = tested on: SF-295 CNS
[48] = tested on: 786-0 renal
[49] = tested on: MDA-MB-231 breast
[50] = tested on: OVCAR-3 ovarian
[51] = tested on: COLO 205 colon
[52] = tested on: A549 NSCLC
[53] = tested on: A498 renal
[54] = tested on: LOX IMVI melanoma
[55] = tested on: HT29 colon
[56] = tested on: T-47D breast
[57] = tested on: UACC-62 melanoma
[58] = tested on: HL-60(TB) leukemia
[59] = tested on: MALME-3M melanoma

`c1ccc(Nc2nnc(Cn3ccc4ccccc43)s2)cc1` was tested, and the TGI [1] was over 100 µM, the TGI [2] was over 100 µM and the TGI [3] was over 100 µM. The TGI [4] was over 100 µM, the TGI [5] was over 100 µM and the TGI [6] was over 100 µM. It also gave a TGI [7] of over 100 µM, a TGI [8] of over 100 µM and a TGI [9] of over 100 µM. For the same compound, the TGI [10] was over 100 µM, the TGI [11] was over 100 µM and the TGI [12] was over 100 µM. For the same compound, the TGI [13] was over 100 µM, the TGI [14] was 82.8 µM and the TGI [15] was over 100 µM. The TGI [16] was over 100 µM, the TGI [17] was over 100 µM and the TGI [18] was over 100 µM. The TGI [19] was over 100 µM, the TGI [20] was over 100 µM and the TGI [21] was over 100 µM. The TGI [22] was over 100 µM, the TGI [23] was over 100 µM and the TGI [24] was over 100 µM. For the same compound, the TGI [25] was over 100 µM, the TGI [26] was over 100 µM and the TGI [27] was over 100 µM. The TGI [28] was over 100 µM, the TGI [29] was over 100 µM and the TGI [30] was over 100 µM. For the same compound, the TGI [31] was over 100 µM, the TGI [32] was over 100 µM and the TGI [33] was over 100 µM. The TGI [34] was 70.6 µM, the TGI [35] was over 100 µM and the TGI [36] was over 100 µM. For the same compound, the TGI [37] was over 100 µM, the TGI [38] was over 100 µM and the TGI [39] was over 100 µM. For the same compound, the TGI [40] was over 100 µM, the TGI [41] was over 100 µM and the TGI [42] was over 100 µM. The TGI [43] was over 100 µM, the TGI [44] was over 100 µM and the TGI [45] was over 100 µM. The TGI [46] was over 100 µM, the TGI [47] was 80.9 µM and the TGI [48] was over 100 µM. For the same compound, the TGI [49] was over 100 µM, the TGI [50] was over 100 µM and the TGI [51] was over 100 µM. It also gave a TGI [52] of over 100 µM, a TGI [53] of over 100 µM and a TGI [54] of over 100 µM. The TGI [55] was over 100 µM, the TGI [56] was over 100 µM and the TGI [57] was over 100 µM.
In the case of `C=C(C)CN(CC#N)CC(=C)C`, the TGI [1] is reported as over 100 µM, the TGI [2] is reported as over 100 µM and the TGI [3] is reported as over 100 µM. The TGI [4] was over 100 µM, the TGI [5] was over 100 µM and the TGI [6] was over 100 µM. The TGI [7] was over 100 µM, the TGI [8] was over 100 µM and the TGI [9] was over 100 µM. The TGI [11] was over 100 µM, the TGI [12] was over 100 µM and the TGI [13] was over 100 µM. The TGI [14] was over 100 µM, the TGI [15] was over 100 µM and the TGI [16] was over 100 µM. The TGI [18] was over 100 µM, the TGI [19] was over 100 µM and the TGI [20] was over 100 µM. For the same compound, the TGI [21] was over 100 µM, the TGI [22] was over 100 µM and the TGI [23] was over 100 µM. It also gave a TGI [24] of over 100 µM, a TGI [25] of over 100 µM and a TGI [26] of over 100 µM. The TGI [27] was over 100 µM, the TGI [28] was over 100 µM and the TGI [29] was over 100 µM. The TGI [30] was over 100 µM, the TGI [31] was over 100 µM and the TGI [32] was over 100 µM. It also gave a TGI [33] of over 100 µM, a TGI [34] of over 100 µM and a TGI [35] of over 100 µM. The TGI [36] was over 100 µM, the TGI [37] was over 100 µM and the TGI [38] was over 100 µM. For the same compound, the TGI [39] was over 100 µM, the TGI [40] was over 100 µM and the TGI [41] was over 100 µM. It also gave a TGI [43] of over 100 µM, a TGI [58] of over 100 µM and a TGI [44] of over 100 µM. It also gave a TGI [59] of over 100 µM, a TGI [45] of over 100 µM and a TGI [46] of over 100 µM. The TGI [47] was over 100 µM, the TGI [48] was over 100 µM and the TGI [49] was over 100 µM. It also gave a TGI [50] of over 100 µM, a TGI [51] of over 100 µM and a TGI [52] of over 100 µM. For the same compound, the TGI [53] was over 100 µM, the TGI [54] was over 100 µM and the TGI [55] was over 100 µM. The TGI [56] was over 100 µM and the TGI [57] was over 100 µM.
With `NNc1nc2ccccc2s1` the TGI [1] was over 100 µM, the TGI [2] was over 100 µM and the TGI [3] was over 100 µM. It also gave a TGI [4] of over 100 µM, a TGI [5] of over 100 µM and a TGI [6] of over 100 µM. For the same compound, the TGI [7] was over 100 µM, the TGI [8] was over 100 µM and the TGI [9] was over 100 µM. The TGI [10] was over 100 µM, the TGI [11] was over 100 µM and the TGI [12] was over 100 µM. The TGI [13] was over 100 µM, the TGI [14] was over 100 µM and the TGI [15] was over 100 µM. For the same compound, the TGI [16] was over 100 µM, the TGI [17] was over 100 µM and the TGI [18] was over 100 µM. The TGI [19] was over 100 µM, the TGI [20] was over 100 µM and the TGI [21] was over 100 µM. It also gave a TGI [22] of over 100 µM, a TGI [23] of over 100 µM and a TGI [24] of over 100 µM. It also gave a TGI [26] of over 100 µM, a TGI [27] of over 100 µM and a TGI [28] of over 100 µM. It also gave a TGI [30] of over 100 µM, a TGI [31] of over 100 µM and a TGI [32] of over 100 µM. For the same compound, the TGI [33] was over 100 µM, the TGI [34] was over 100 µM and the TGI [35] was over 100 µM. It also gave a TGI [36] of over 100 µM, a TGI [37] of over 100 µM and a TGI [38] of over 100 µM. It also gave a TGI [39] of over 100 µM, a TGI [40] of over 100 µM and a TGI [41] of over 100 µM. For the same compound, the TGI [42] was over 100 µM, the TGI [43] was over 100 µM and the TGI [58] was over 100 µM. For the same compound, the TGI [44] was over 100 µM, the TGI [59] was over 100 µM and the TGI [45] was over 100 µM. For the same compound, the TGI [46] was over 100 µM, the TGI [48] was over 100 µM and the TGI [49] was over 100 µM. For the same compound, the TGI [51] was over 100 µM, the TGI [52] was over 100 µM and the TGI [53] was over 100 µM. It also gave a TGI [54] of over 100 µM, a TGI [55] of over 100 µM and a TGI [56] of over 100 µM. For the same compound, the TGI [57] was over 100 µM.
With `CCOC(=O)C1C(c2ccc(OC)cc2)c2c([nH][nH]c2=O)CC1(O)OCC` (stereo not drawn) the TGI [1] was over 100 µM, the TGI [2] was over 100 µM and the TGI [3] was over 100 µM. It also gave a TGI [4] of over 100 µM, a TGI [5] of over 100 µM and a TGI [6] of over 100 µM. The TGI [7] was over 100 µM, the TGI [8] was over 100 µM and the TGI [9] was over 100 µM. The TGI [10] was over 100 µM, the TGI [11] was over 100 µM and the TGI [12] was over 100 µM. The TGI [13] was over 100 µM, the TGI [14] was over 100 µM and the TGI [15] was over 100 µM. It also gave a TGI [17] of over 100 µM, a TGI [18] of over 100 µM and a TGI [21] of over 100 µM. It also gave a TGI [22] of over 100 µM, a TGI [23] of over 100 µM and a TGI [24] of over 100 µM. It also gave a TGI [25] of over 100 µM, a TGI [26] of over 100 µM and a TGI [27] of over 100 µM. It also gave a TGI [28] of over 100 µM, a TGI [30] of over 100 µM and a TGI [31] of over 100 µM. It also gave a TGI [32] of over 100 µM, a TGI [33] of over 100 µM and a TGI [34] of over 100 µM. For the same compound, the TGI [35] was over 100 µM, the TGI [36] was over 100 µM and the TGI [37] was over 100 µM. It also gave a TGI [38] of over 100 µM, a TGI [39] of over 100 µM and a TGI [40] of over 100 µM. For the same compound, the TGI [41] was over 100 µM, the TGI [42] was over 100 µM and the TGI [43] was over 100 µM. The TGI [58] was over 100 µM, the TGI [44] was over 100 µM and the TGI [59] was over 100 µM. The TGI [45] was over 100 µM, the TGI [46] was over 100 µM and the TGI [47] was over 100 µM. For the same compound, the TGI [48] was over 100 µM, the TGI [49] was over 100 µM and the TGI [50] was over 100 µM. For the same compound, the TGI [51] was over 100 µM, the TGI [52] was over 100 µM and the TGI [53] was over 100 µM. It also gave a TGI [54] of over 100 µM, a TGI [55] of over 100 µM and a TGI [56] of over 100 µM. The TGI [57] was over 100 µM.
